Laboratory results: patent US10494332B2, “Protein tyrosine phosphatases or SHP2 inhibitors and uses thereof” (Indiana University Research and Technology Corporation, priority 2015, dated 2019)

The compounds below were run against T1, LMWPTP (Homo sapiens, UniProt P24666) (assay: PTP inhibition assay (pNPP)). Details: pNPP at Km, pH 7.0, 25° C.
T1 sequence (P24666 1-158): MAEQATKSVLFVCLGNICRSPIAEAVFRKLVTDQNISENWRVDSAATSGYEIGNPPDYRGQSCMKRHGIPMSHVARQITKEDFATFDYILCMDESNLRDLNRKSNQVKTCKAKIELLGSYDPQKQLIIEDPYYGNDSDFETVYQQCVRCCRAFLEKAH
Format: biochemical

Structure (SMILES) | IC50 [µM]
O=C(Nc1nc2ccccc2s1)C(c1ccc(Br)cc1)S(=O)(=O)O (stereo not drawn) [Compound L319N15-14] | > 200
O=C(Nc1nc2ccccc2s1)C(c1ccc([N+](=O)[O-])cc1)S(=O)(=O)O (stereo not drawn) [Compound L319N15-16] | > 200
O=C(Nc1nc2ccccc2s1)C(c1ccccc1F)S(=O)(=O)O (stereo not drawn) [Compound L319N15-17] | > 100
O=C(Nc1nc2ccccc2s1)C(c1ccccc1Cl)S(=O)(=O)O (stereo not drawn) [Compound L319N15-18] | > 100

What follows are compounds tested against T2, Laforin (Homo sapiens, UniProt O95278) (assay: PTP inhibition assay (pNPP)). Details: pNPP at Km, pH 7.0, 25° C.; read-out: IC50 Laforin.
T2 sequence (O95278 1-331): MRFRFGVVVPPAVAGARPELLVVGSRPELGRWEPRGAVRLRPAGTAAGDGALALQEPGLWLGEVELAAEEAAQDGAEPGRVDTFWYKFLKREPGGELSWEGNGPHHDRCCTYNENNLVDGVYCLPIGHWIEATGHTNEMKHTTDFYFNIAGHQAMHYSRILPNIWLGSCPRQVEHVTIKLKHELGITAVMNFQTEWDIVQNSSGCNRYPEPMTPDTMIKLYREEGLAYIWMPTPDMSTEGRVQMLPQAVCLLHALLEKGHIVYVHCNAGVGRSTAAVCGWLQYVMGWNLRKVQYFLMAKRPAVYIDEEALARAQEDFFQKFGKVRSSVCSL
Format: biochemical

Structure (SMILES) | IC50 [µM]
O=C(Nc1nc2ccccc2s1)C(c1ccc(Br)cc1)S(=O)(=O)O (stereo not drawn) [Compound L319N15-14] | 19
O=C(Nc1nc2ccccc2s1)C(c1ccc([N+](=O)[O-])cc1)S(=O)(=O)O (stereo not drawn) [Compound L319N15-16] | 66
O=C(Nc1nc2ccccc2s1)C(c1ccccc1F)S(=O)(=O)O (stereo not drawn) [Compound L319N15-17] | 14
O=C(Nc1nc2ccccc2s1)C(c1ccccc1Cl)S(=O)(=O)O (stereo not drawn) [Compound L319N15-18] | 32

Each compound was assayed against T3, PTP1B (Homo sapiens, UniProt P18031) (assay: PTP inhibition assay (pNPP)). Details: pNPP at Km, pH 7.0, 25° C.
T3 sequence (P18031 1-435): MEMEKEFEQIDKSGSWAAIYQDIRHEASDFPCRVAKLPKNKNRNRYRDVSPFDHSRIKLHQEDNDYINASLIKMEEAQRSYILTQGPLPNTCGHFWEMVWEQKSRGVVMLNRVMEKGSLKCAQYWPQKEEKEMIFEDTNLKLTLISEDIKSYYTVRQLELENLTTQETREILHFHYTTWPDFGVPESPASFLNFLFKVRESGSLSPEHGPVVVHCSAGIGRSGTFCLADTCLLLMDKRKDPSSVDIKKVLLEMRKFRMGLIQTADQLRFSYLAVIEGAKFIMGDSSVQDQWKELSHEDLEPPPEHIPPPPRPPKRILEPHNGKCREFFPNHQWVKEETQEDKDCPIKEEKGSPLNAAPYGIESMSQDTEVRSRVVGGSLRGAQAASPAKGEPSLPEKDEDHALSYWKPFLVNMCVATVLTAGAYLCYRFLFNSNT
Format: biochemical

Structure (SMILES) | IC50 [µM]
O=C(Nc1nc2ccccc2s1)C(c1ccc(Br)cc1)S(=O)(=O)O (stereo not drawn) [Compound L319N15-14] | > 200
O=C(Nc1nc2ccccc2s1)C(c1ccc([N+](=O)[O-])cc1)S(=O)(=O)O (stereo not drawn) [Compound L319N15-16] | > 200
O=C(Nc1nc2ccccc2s1)C(c1ccccc1F)S(=O)(=O)O (stereo not drawn) [Compound L319N15-17] | > 100
O=C(Nc1nc2ccccc2s1)C(c1ccccc1Cl)S(=O)(=O)O (stereo not drawn) [Compound L319N15-18] | > 100

What follows are compounds tested against T4, LYP (Homo sapiens, UniProt Q9Y2R2) (assay: PTP inhibition assay (pNPP)). Details: pNPP at Km, pH 7.0, 25° C.
T4 sequence (Q9Y2R2 1-807): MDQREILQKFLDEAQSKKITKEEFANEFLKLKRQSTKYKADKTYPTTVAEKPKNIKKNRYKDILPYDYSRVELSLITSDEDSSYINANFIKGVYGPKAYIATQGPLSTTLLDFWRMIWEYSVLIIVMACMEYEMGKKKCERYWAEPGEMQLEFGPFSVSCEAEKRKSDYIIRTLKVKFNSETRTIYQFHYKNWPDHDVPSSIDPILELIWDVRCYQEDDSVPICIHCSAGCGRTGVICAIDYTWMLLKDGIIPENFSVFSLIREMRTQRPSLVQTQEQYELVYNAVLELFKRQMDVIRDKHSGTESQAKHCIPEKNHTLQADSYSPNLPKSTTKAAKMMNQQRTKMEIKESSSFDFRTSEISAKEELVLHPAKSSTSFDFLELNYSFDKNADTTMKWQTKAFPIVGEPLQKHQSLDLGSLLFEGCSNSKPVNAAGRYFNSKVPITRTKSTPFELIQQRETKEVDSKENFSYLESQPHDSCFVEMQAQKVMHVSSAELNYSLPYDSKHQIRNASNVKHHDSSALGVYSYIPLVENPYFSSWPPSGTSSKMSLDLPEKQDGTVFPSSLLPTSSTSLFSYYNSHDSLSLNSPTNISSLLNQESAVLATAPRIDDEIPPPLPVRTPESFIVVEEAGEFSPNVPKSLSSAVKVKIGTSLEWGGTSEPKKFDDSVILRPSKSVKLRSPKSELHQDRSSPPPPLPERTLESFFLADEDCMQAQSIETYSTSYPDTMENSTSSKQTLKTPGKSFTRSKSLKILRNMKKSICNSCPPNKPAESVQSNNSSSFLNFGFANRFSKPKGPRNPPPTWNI
Format: biochemical

Structure (SMILES) | IC50 [µM]
O=C(Nc1nc2ccccc2s1)C(c1ccc(Br)cc1)S(=O)(=O)O (stereo not drawn) [Compound L319N15-14] | > 200
O=C(Nc1nc2ccccc2s1)C(c1ccc([N+](=O)[O-])cc1)S(=O)(=O)O (stereo not drawn) [Compound L319N15-16] | 180
O=C(Nc1nc2ccccc2s1)C(c1ccccc1F)S(=O)(=O)O (stereo not drawn) [Compound L319N15-17] | > 100
O=C(Nc1nc2ccccc2s1)C(c1ccccc1Cl)S(=O)(=O)O (stereo not drawn) [Compound L319N15-18] | > 100

The compounds below were run against T5, SHP2 (Homo sapiens, UniProt Q06124) (assay: SHP2 phosphatase inhibition assay (pNPP)). Details: pNPP at Km, pH 7.0, 25° C.; read-out: IC50 SHP2.
T5 sequence (Q06124 224-528): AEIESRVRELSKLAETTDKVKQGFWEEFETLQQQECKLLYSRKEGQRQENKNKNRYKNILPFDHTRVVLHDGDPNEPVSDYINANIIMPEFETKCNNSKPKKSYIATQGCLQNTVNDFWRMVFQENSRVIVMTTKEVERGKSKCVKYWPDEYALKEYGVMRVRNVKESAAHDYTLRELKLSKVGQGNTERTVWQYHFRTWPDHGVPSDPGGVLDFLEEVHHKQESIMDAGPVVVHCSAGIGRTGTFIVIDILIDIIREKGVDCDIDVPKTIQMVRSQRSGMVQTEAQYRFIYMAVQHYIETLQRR
Format: biochemical

Structure (SMILES) | IC50 [µM]
O=C(Nc1nc2ccccc2s1)C(c1ccc(Br)cc1)S(=O)(=O)O (stereo not drawn) [Compound L319N15-14] | > 200
O=C(Nc1nc2ccccc2s1)C(c1ccc([N+](=O)[O-])cc1)S(=O)(=O)O (stereo not drawn) [Compound L319N15-16] | 135
O=C(Nc1nc2ccccc2s1)C(c1ccccc1F)S(=O)(=O)O (stereo not drawn) [Compound L319N15-17] | > 100
O=C(Nc1nc2ccccc2s1)C(c1ccccc1Cl)S(=O)(=O)O (stereo not drawn) [Compound L319N15-18] | > 100

What follows are compounds tested against T6, CD45 (Homo sapiens, UniProt P08575) (assay: PTP inhibition assay (pNPP)). Details: pNPP at Km, pH 7.0, 25° C.
T6 sequence (P08575 26-1306): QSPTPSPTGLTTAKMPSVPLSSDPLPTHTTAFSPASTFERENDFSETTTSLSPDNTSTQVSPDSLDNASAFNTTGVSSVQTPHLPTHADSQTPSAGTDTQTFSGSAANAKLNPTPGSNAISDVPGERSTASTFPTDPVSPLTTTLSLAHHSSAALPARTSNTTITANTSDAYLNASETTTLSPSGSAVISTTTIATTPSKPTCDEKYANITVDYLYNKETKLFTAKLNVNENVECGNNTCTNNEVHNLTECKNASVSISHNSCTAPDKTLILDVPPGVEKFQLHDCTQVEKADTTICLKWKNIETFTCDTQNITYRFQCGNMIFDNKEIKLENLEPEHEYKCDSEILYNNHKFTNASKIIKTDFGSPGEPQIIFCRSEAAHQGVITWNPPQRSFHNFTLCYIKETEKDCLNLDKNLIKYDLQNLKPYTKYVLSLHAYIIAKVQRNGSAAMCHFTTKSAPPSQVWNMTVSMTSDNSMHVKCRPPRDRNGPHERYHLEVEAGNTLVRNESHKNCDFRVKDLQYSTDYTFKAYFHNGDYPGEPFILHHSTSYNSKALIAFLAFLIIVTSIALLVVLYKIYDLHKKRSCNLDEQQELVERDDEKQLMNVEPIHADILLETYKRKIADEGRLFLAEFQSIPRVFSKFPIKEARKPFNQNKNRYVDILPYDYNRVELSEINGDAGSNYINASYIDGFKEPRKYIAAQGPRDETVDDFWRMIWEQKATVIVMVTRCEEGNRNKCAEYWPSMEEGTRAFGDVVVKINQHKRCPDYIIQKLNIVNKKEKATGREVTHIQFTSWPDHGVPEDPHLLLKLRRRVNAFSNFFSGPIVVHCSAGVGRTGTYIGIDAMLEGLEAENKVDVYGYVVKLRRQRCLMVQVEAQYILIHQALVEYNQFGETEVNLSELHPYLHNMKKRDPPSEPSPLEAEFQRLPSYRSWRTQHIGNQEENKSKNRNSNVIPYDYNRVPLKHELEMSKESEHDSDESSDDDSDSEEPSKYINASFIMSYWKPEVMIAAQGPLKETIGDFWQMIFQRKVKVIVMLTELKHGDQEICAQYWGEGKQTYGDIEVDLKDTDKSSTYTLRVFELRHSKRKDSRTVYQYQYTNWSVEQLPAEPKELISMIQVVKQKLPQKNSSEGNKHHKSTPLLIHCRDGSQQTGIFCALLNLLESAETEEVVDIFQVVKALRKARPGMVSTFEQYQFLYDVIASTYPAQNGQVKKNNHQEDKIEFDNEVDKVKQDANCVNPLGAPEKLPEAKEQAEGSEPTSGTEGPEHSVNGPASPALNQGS
Format: biochemical

Structure (SMILES) | IC50 [µM]
O=C(Nc1nc2ccccc2s1)C(c1ccc(Br)cc1)S(=O)(=O)O (stereo not drawn) [Compound L319N15-14] | > 200
O=C(Nc1nc2ccccc2s1)C(c1ccc([N+](=O)[O-])cc1)S(=O)(=O)O (stereo not drawn) [Compound L319N15-16] | > 200
O=C(Nc1nc2ccccc2s1)C(c1ccccc1F)S(=O)(=O)O (stereo not drawn) [Compound L319N15-17] | > 100
O=C(Nc1nc2ccccc2s1)C(c1ccccc1Cl)S(=O)(=O)O (stereo not drawn) [Compound L319N15-18] | > 100
